From patent US20070010402A1, “Novel herbicides, usage thereof, novel thienopyrimidine derivatives, intermediates of the same, and process for production thereof” (NIHON NOHYAKU CO., LTD.,, priority 2002, published 2007)

Assays:
[1] = system: Echinochloa oryzicola; experiment: Submerged foliar treatment test (Test Example 3); assay type: in vivo; conditions: water depth 3 cm, cotyledon to 1-leaf stage, wettable powder, active ingredient 10 g/a, 28th day from the treatment
Protocol: (§1) The herbicidal effect was evaluated in terms of herbicidal rate obtained from the following equation: Herbicidal rate (%)=[1−(Weight of weeds above the ground in a treated plot)/(Weight of weeds above the ground in a non-treated plot)]×100
(§2) and was expressed by herbicidal index according to the following criteria.
(§3) Alluvial soil from a paddy field was put in a resin-made vat having an area of 200 cm^2. After fertilization, seeds of Echinochloa oryzicola, Rotala indica and Scirpus juncoides were cast on the soil and uniformly covered with the soil, and water was poured onto the soil to keep a water depth of 3 cm. Then, cultivation was continued in a greenhouse, and when the weeds to be tested reached the cotyledon stage to 1-leaf stage, the wettable powder obtained in Formulation Example 1 was diluted with water and a predetermined amount thereof was added dropwise uniformly to the weeds by means of a pipette to give 10 g of the active ingredient per an are. Thereafter, cultivation was further continued in the greenhouse, and the herbicidal effect was examined on the 28th day from the treatment. The results obtained are shown in Table 9 (the compound numbers in Table 9 correspond to those in Tables 1 to 6).

[2] = system: Rotala indica; experiment: Submerged foliar treatment test (Test Example 3); assay type: in vivo; conditions: water depth 3 cm, cotyledon to 1-leaf stage, wettable powder, active ingredient 10 g/a, 28th day from the treatment
Protocol: as §1, §2, §3

[3] = system: Scirpus juncoides; experiment: Submerged foliar treatment test (Test Example 3); assay type: in vivo; conditions: water depth 3 cm, cotyledon to 1-leaf stage, wettable powder, active ingredient 10 g/a, 28th day from the treatment
Protocol: as §1, §2, §3

[4] = system: Brassica juncea; experiment: Field foliar treatment test (Test Example 1); assay type: in vivo; conditions: foliar spray at 1.0- to 2.0-leaf stage, wettable powder, active ingredient 10 g/a, 21st day from the treatment
Protocol: (§4) Alluvial soil from a field was put in a resin-made vat having an area of 200 cm^2. After fertilization, the seeds of Echinochloa crus-galli, Brassica juncea, and Ipomoea purpurea were cast on the soil and uniformly covered with the soil. Then, cultivation was continued in a greenhouse, and when the weeds to be tested reached the 1.0- to 2.0-leaf stage, the wettable powder obtained in Formulation Example 1 was diluted with water and a predetermined amount thereof was sprayed uniformly to the weeds by means of a small-sized power pressure spray to give 10 g of the active ingredient per an are. Thereafter, cultivation was further continued in the greenhouse, and the herbicidal effect was examined on the 21st day from the treatment. The results obtained are shown in Table 7 (the compound numbers in Table 7 correspond to those in Table 1 to 6). The herbicidal effect was evaluated in terms of herbicidal rate obtained from the following equation: Herbicidal rate (%)=[1−(Weight of weeds above the ground in a treated plot)/(Weight of weeds above the ground in a non-treated plot)]×100 and was expressed by herbicidal index according to the following criteria. [table]

[5] = system: Ipomoea purpurea; experiment: Field foliar treatment test (Test Example 1); assay type: in vivo; conditions: foliar spray at 1.0- to 2.0-leaf stage, wettable powder, active ingredient 10 g/a, 21st day from the treatment
Protocol: as §4

[6] = system: Echinochloa crus-galli; experiment: Field foliar treatment test (Test Example 1); assay type: in vivo; conditions: foliar spray at 1.0- to 2.0-leaf stage, wettable powder, active ingredient 10 g/a, 21st day from the treatment
Protocol: as §4

melting point	Compound	Herbicidal effect Echinochloa oryzicola (herbicidal index) [1]	Herbicidal effect Rotala indica (herbicidal index) [2]	Herbicidal effect Scirpus juncoides (herbicidal index) [3]	Herbicidal effect Brassica juncea (herbicidal index) [4]	Herbicidal effect Ipomoea purpurea (herbicidal index) [5]	Herbicidal effect Echinochloa crus-galli (herbicidal index) [6]
118 to 120 °C	Cc1cc2c(-c3cccc(Cl)c3)nc(Cl)nc2s1 [Compound No. 5-15, 2-chloro-4-(3-chlorophenyl)-6-methylthieno[2,3-d]pyrimidine]	5 (91 to 100)	5 (91 to 100)	3 (51 to 70)	–	–	–
127 °C	Cc1cc2c(-c3sccc3C)nc(Cl)nc2s1 [Compound No. 5-22, 2-chloro-6-methyl-4-(3-methylthiophen-2-yl)thieno[2,3-d]pyrimidine]	–	–	–	–	–	–
204 to 206 °C (dec.)	Cc1cc2c(-c3sc(C=O)cc3C)nc(Cl)nc2s1 [Compound No. 5-23, 2-chloro-4-(5-formyl-3-methylthiophen-2-yl)-6-methylthieno[2,3-d]pyrimidine]	–	–	–	–	–	–
174 to 176 °C (dec.)	Cc1cc2nc(Cl)nc(-c3cccc(C(F)(F)F)c3)c2s1 [Compound No. 5-34, 2-chloro-6-methyl-4-[3-(trifluoromethyl)phenyl]thieno[3,2-d]pyrimidine]	–	–	–	–	–	–
70 to 72 °C	Cc1cc2c(-c3cccc(C(F)(F)F)c3)ncnc2s1 [Compound No. 6-9, 6-methyl-4-[3-(trifluoromethyl)phenyl]thieno[2,3-d]pyrimidine]	–	–	–	–	–	–
121 to 122 °C	Cc1cc2c(-c3cccc(C(F)(F)F)c3)nc(C#N)nc2s1 [Compound No. 6-10, 2-cyano-6-methyl-4-[3-(trifluoromethyl)phenyl]thieno[2,3-d]pyrimidine]	5 (91 to 100)	5 (91 to 100)	4 (71 to 90)	–	–	–
40 to 41 °C	Cc1cc2c(-c3cccc(C(F)(F)F)c3)nc(COCC(F)(F)F)nc2s1 [Compound No. 6-17, 6-methyl-2-[(2,2,2-trifluoroethoxy)methyl]-4-[3-(trifluoromethyl)phenyl]thieno[2,3-d]pyrimidine]	5 (91 to 100)	5 (91 to 100)	3 (51 to 70)	–	–	–
134 to 136 °C	Cc1cc2c(-c3cccc(C(F)(F)F)c3)nc(-c3ccc(C(F)(F)F)cc3)nc2s1 [Compound No. 6-18, 6-methyl-2-[4-(trifluoromethyl)phenyl]-4-[3-(trifluoromethyl)phenyl]thieno[2,3-d]pyrimidine]	3 (51 to 70)	4 (71 to 90)	1 (6 to 30)	–	–	–
124 to 125 °C	Cc1cc2c(Oc3cccc(C(F)(F)F)c3)nc(OCC(F)(F)F)nc2s1 [Compound No. 6-129, 6-methyl-2-(2,2,2-trifluoroethoxy)-4-[3-(trifluoromethyl)phenoxy]thieno[2,3-d]pyrimidine]	5 (91 to 100)	4 (71 to 90)	2 (31 to 50)	–	–	–
85 °C	Cc1cc2c(Oc3cccc(C(F)(F)F)c3)nc(CCC(F)(F)F)nc2s1 [Compound No. 6-130, 6-methyl-4-[3-(trifluoromethyl)phenoxy]-2-(3,3,3-trifluoropropyl)thieno[2,3-d]pyrimidine]	–	–	–	4 (71 to 90)	3 (51 to 70)	2 (31 to 50)
233 °C	CNc1nc(-c2ccc(C(F)(F)F)cc2)c2cc(C)sc2n1 [Compound No. 6-168, 6-methyl-2-(methylamino)-4-[4-(trifluoromethyl)phenyl]thieno[2,3-d]pyrimidine]	–	–	–	–	–	–
113 °C	CSc1nc(-c2ccc(C(F)(F)F)cc2)c2cc(C)sc2n1 [Compound No. 6-171, 6-methyl-2-methylthio-4-[4-(trifluoromethyl)phenyl]thieno[2,3-d]pyrimidine]	–	–	–	–	–	–
226 to 227 °C (dec.)	Cc1cc2c(-c3cccc(C(F)(F)F)c3)nc(C(=O)O)nc2s1 [Compound No. 6-180, 6-methyl-4-[3-(trifluoromethyl)phenyl]thieno[2,3-d]pyrimidine-2-carboxylic acid]	–	–	–	–	–	–
106 °C	Cc1cc2nc(OC(C)C)nc(-c3cccc(C(F)(F)F)c3)c2s1 [Compound No. 6-231, 2-isopropoxy-6-methyl-4-[3-(trifluoromethyl)phenyl]thieno[3,2-d]pyrimidine]	–	–	–	5 (91 to 100)	5 (91 to 100)	4 (71 to 90)
